One series deals with HNF4α mRNA. In words: HNF4α mRNA levels by quantitative PCR. It counts as cell-based. The settings on record: FIG. 3. As for the experimental part: Expression of Insulin and HNF4α. RNA was purified using a RNEASY® chromatographic separation and isolation kits (Qiagen), and converted to cDNA using the gScript™ cDNA SuperMix (Quanta Biosciences). Q-PCR was conducted with cDNA corresponding to 2 μg of RNA using an Opticon Real-Time System (MJ Research) and QPCR SuperMix (BioPioneer). See All mRNA values were normalized to 18S rRNA values and are expressed as fold changes over vehicle-treated control.

Another series can be described thus: in vivo. The settings on record: male, C57BL/6, mouse.
A further series has as its system E47MER. In words: Counter-screen for estrogenic activity (E47MER luciferase reporter in HeLa cells). It counts as cell-based, human. The following applies: with 1 μM or without tamoxifen, FIG. 5. As for the experimental part:
Counter-Screen for Estrogenic Activity. Estrogenic activity was monitored by co-transfection of a reporter plasmid containing a multimerized E-box 5′ of a minimal promoter fused to the Firefly luciferase gene with wild-type E47 or E47MER (Kiselyuk, et al. (2010) J. Biomol. Screen 15(6):663-70). HeLa cells were transfected using polyethylenimine, 0.2 μg 4RTK-Luc plasmid and either 0.3 μg of human E47, E47MER or pMSCVhph vector in 50 μl of serum-free Dulbecco's modification of Eagle medium per well. Transfections included Renilla luciferase (pRL-TK) plasmid as a control for transfection efficacy. Transfection conditions were as described in the PPRE-Luc reporter assay of Kiselyuk, et al. ((2010) J. Biomol. Screen 15(6):663-70). Sixteen hours after transfection, culture media were changed and maintained for 48 hours with tamoxifen and/or compound or vehicle (DMSO). Cells were then lysed and assayed for luciferase activity using the Promega DUAL-LUCIFERASE® reporter assay kit (Promega Corp., Madison, WI), and luminescence was measured using the Veritas™ Microplate Luminometer (Turner Biosystems, Sunnyvale, CA). Data were normalized to Renilla luciferase (pRL-TK) and expressed as fold-change over vehicle alone.
For orientation: The purpose of a counterscreen is to sort out artefacts and off-target activity.

The nature of series [1]: Hepatic microsome stability assay, mouse. It counts as in vitro ADME. The following applies: for % Remaining: mouse microsomes. On the procedure:
Hepatic Microsome Assay. Hepatic microsomes stability assays were performed in accordance with known methods (Peddibhotla, et al. (2013) ACS Med. Chem. Lett. 4:846-851). Briefly, 3 μL of 25 μM compound solution in acetonitrile were incubated with 123 μL of mouse, human or rat liver microsomes (Xenotech, Kansas City, KS). After preincubation at 37° C. for 10 minutes, enzyme reactions were initiated by adding 120 !at of NADPH-generating system (2 mM NADP+, 10 mM glucose-6-phosphate, 0.4 U/ml glucose-6-phosphate dehydrogenase, and 5 mM MgCl2) in the presence of 100 mM potassium phosphate buffer (pH 7.4). […] The microsomal concentrations used were 1.0 mg/mL. Compounds were incubated in microsomes for 0, 5, 15, 30 and 60 minutes. The reactions were stopped by the addition of ice cold ACN and the reaction mixtures were centrifuged at 10,000 g for 10 minutes before the supernatant was removed for analysis. A 10 μL portion of the resulting extract was injected on a Thermo HPLC system equipped with PAL CTC plate sampler (96-well plate), Dionex Ultimate 3000 binary pump (flow rate at 0. 600 mL/min), Dionex Ultimate 3000 thermostatted column compartment (temperature at 40° C.), Thermo Endura Mass Spectrometer (ESI source), using a Thermo Scientific Accucore C18 (2.6 μM, 2.1×50 mm) column. A gradient was run starting at 95% H2O (0.1% formic acid) and 5% ACN (0. 1% formic acid) during the first 0. 5 min, then under gradient condition of 5-100% ACN (0.1% formic acid) from minute 0. 5 to 3.5, finishing at 95% H2O (0.1% formic acid) and 5% ACN (0.1% formic acid) over 0.5 min, with another 1 min at 95:5 to re-equilibrate.

Method for in vivo: Bioavailability Determinations.
A blood sample from each mouse was drawn at 0.25, 0.5, 1, 2, 4, 6 and 24 hours after administration. An 8μL aliquot of blood was used for analysis. After adding 200 μL of an internal standard comprising 100 ng/mL Labetalol, 100 ng/mL dexamethasone, 100 ng/mL tolbutamide, 100 ng/mL Verapamil, 100 ng/mL Glyburide, and 100 ng/mL Celecoxib in ACN, the mixture was vortex-mixed and centrifuged at 12000 rpm for 15 minutes at 4° C. to pellet precipitated protein. Four μL at of the supernatant was injected for LC-MS/MS analysis. Bioavailability (%) was calculated using AUC0-inf(% AUCExtra<20%) or AUC0-last, (% AUCExtra >20%) with nominal dose.

In general, bioavailability refers to dose-corrected exposure relative to a reference, in per cent. Read a low bioavailability as little systemic uptake. A word on the half-life: it is how long it takes for the measured level to halve. Low readings indicate fast loss, high ones slow loss. Turning to `O=C(/C=C/c1ccc(O)c(O)c1)NCCc1ccc(O)cc1` [N-trans-caffeoyltyramine], the HNF4α gene expression result in the series on HNF4α mRNA is given as “upregulated”. For the same compound, in the series “in vivo”, the bioavailability is roughly 11%. For the same compound, the estrogenic activity result with E47MER is given as “did not exhibit estrogenic activity”. The half-life at 1 μM in series [1] (liver microsomes, pH 7.4, 1 μM) amounted to 0.8 min. Moreover, in series [1] (liver microsomes, pH 7.4, 1 μM, read-out: Clearance Rate), the microsomal CLint at 1 μM worked out at 1760 µL/min/mg. Also, the half-life at 10 μM in series [1] (liver microsomes, pH 7.4, 10 μM) was determined as 6.9 min. Also, in series [1] (liver microsomes, pH 7.4, 10 μM, read-out: Clearance Rate), the microsomal CLint at 10 μM was 200 µL/min/mg. Further, the “% Remaining” value in series [1] (1 μM) is recorded as 0.4%; in series [1] (10 μM), 0.3%.

Source of the values: patent US20240158339A1, “TYRAMINE CONTAINING HYDROXYCINNAMIC ACID AMIDE DERIVATIVES AND METHODS OF USE THEREOF” (Brightseed, Inc., priority 2018, published 2024).
